In PubChem BioAssay AID292 (DTP/NCI, 2004):
Where “and” joins values, the source holds several entries; their conditions need not be identical. Identical values can stand only once. Toxic doses and inconclusive results are not listed.

Tested on: B6C3F1 mice, ip Sarcoma M5076, median survival T/C
Experiment: NCI In Vivo Anticancer Drug Screen. Data for tumor model Sarcoma M5076 (intraperitoneal) in B6C3F1 mice
Conditions: endpoint: median survival time, higher = longer survival
Outline: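 Transplantable tumour in mice; compound-treated vs vehicle-treated groups. Read-out: survival. Value = treated/control ratio.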

[1] = dose: 18.75 mg/kg/injection, schedule: Q04DX004 (ip), vehicle: saline with Tween-80
[2] = dose: 37.5 mg/kg/injection, schedule: Q04DX004 (ip), vehicle: saline with Tween-80
[3] = dose: 75.0 mg/kg/injection, schedule: Q04DX004 (ip), vehicle: saline with Tween-80
[4] = dose: 150.0 mg/kg/injection, schedule: Q04DX004 (ip), vehicle: saline with Tween-80
[5] = dose: 300.0 mg/kg/injection, schedule: Q04DX004 (ip), vehicle: saline with Tween-80
[6] = dose: 50.0 mg/kg/injection, schedule: Q04DX004 (ip), vehicle: saline with Tween-80
[7] = dose: 100.0 mg/kg/injection, schedule: Q04DX004 (ip), vehicle: saline with Tween-80
[8] = dose: 400.0 mg/kg/injection, schedule: Q04DX004 (ip), vehicle: saline with Tween-80
[9] = dose: 200.0 mg/kg/injection, schedule: Q04DX004 (ip), vehicle: saline with Tween-80

For CCC(/C=C/C1OC(=O)C=CC1C)=C\C(C)C/C=C/C(C)=C/C(C)C(=O)C(C)C(O)C(C)C/C(C)=C/C(=O)O (stereo not drawn), the T/C (dose: 25.0 micrograms/kg/injection, schedule: Q04DX004 (ip), vehicle: other) was 104 % of control, the T/C (dose: 25.0 micrograms/kg/injection, schedule: Q04DX004 (ip), vehicle: saline + alcohol) was 162 % of control and the T/C (dose: 25.0 micrograms/kg/injection, schedule: Q04DX004 (ip), vehicle: saline) was 110 % of control and 111 % of control. For the same molecule, the T/C (dose: 25.0 micrograms/kg/injection, schedule: Q04DX004 (iv), vehicle: saline) was 101 % of control, the T/C (dose: 50.0 micrograms/kg/injection, schedule: Q04DX004 (ip), vehicle: other) was 114 % of control and the T/C (dose: 50.0 micrograms/kg/injection, schedule: Q04DX004 (ip), vehicle: saline + alcohol) was 163 % of control and 175 % of control. For the same molecule, the T/C (dose: 50.0 micrograms/kg/injection, schedule: Q04DX004 (ip), vehicle: saline) was 109 % of control and 114 % of control, the T/C (dose: 50.0 micrograms/kg/injection, schedule: Q04DX004 (iv), vehicle: saline) was 104 % of control and the T/C (dose: 100.0 micrograms/kg/injection, schedule: Q04DX004 (ip), vehicle: other) was 121 % of control. For the same molecule, the T/C (dose: 100.0 micrograms/kg/injection, schedule: Q04DX004 (ip), vehicle: saline + alcohol) was 166 % of control and 188 % of control, the T/C (dose: 100.0 micrograms/kg/injection, schedule: Q04DX004 (ip), vehicle: saline) was 124 % of control and the T/C (dose: 100.0 micrograms/kg/injection, schedule: Q04DX004 (iv), vehicle: saline) was 110 % of control. For the same molecule, the T/C (dose: 100.0 micrograms/kg/injection, schedule: Q04DX004 (sc), vehicle: other) was 106 % of control, the T/C (dose: 200.0 micrograms/kg/injection, schedule: Q04DX004 (ip), vehicle: other) was 121 % of control and the T/C (dose: 200.0 micrograms/kg/injection, schedule: Q04DX004 (ip), vehicle: saline + alcohol) was 184 % of control and 195 % of control. For the same molecule, the T/C (dose: 200.0 micrograms/kg/injection, schedule: Q04DX004 (ip), vehicle: saline) was 124 % of control, the T/C (dose: 200.0 micrograms/kg/injection, schedule: Q04DX004 (iv), vehicle: saline) was 102 % of control and the T/C (dose: 200.0 micrograms/kg/injection, schedule: Q04DX004 (sc), vehicle: other) was 106 % of control. The T/C (dose: 400.0 micrograms/kg/injection, schedule: Q04DX004 (ip), vehicle: other) was 152 % of control, the T/C (dose: 400.0 micrograms/kg/injection, schedule: Q04DX004 (ip), vehicle: saline + alcohol) was 163 % of control and 184 % of control and 195 % of control and the T/C (dose: 400.0 micrograms/kg/injection, schedule: Q04DX004 (iv), vehicle: saline) was 105 % of control. The T/C (dose: 400.0 micrograms/kg/injection, schedule: Q04DX004 (sc), vehicle: other) was 106 % of control, the T/C (dose: 800.0 micrograms/kg/injection, schedule: Q04DX004 (ip), vehicle: saline + alcohol) was 191 % of control and 217 % of control and the T/C (dose: 800.0 micrograms/kg/injection, schedule: Q04DX004 (ip), vehicle: saline) was 152 % of control. For the same molecule, the T/C (dose: 800.0 micrograms/kg/injection, schedule: Q04DX004 (iv), vehicle: saline) was 116 % of control and the T/C (dose: 800.0 micrograms/kg/injection, schedule: Q04DX004 (sc), vehicle: other) was 119 % of control.
O=c1ccn(C2CC3[O][Sn]([c]4ccccc4)([c]4ccccc4)[O]CC3O2)c(=O)[nH]1 (stereo not drawn) was tested, and the T/C (dose: 25.0 mg/kg/injection, schedule: Q04DX004 (ip), vehicle: distilled water + Tween-80) was 104 % of control, the T/C (dose: 50.0 mg/kg/injection, schedule: Q04DX004 (ip), vehicle: distilled water + Tween-80) was 102 % of control and the T/C (dose: 100.0 mg/kg/injection, schedule: Q04DX004 (ip), vehicle: distilled water + Tween-80) was 101 % of control. The T/C (dose: 200.0 mg/kg/injection, schedule: Q04DX004 (ip), vehicle: distilled water + Tween-80) was 103 % of control and the T/C (dose: 400.0 mg/kg/injection, schedule: Q04DX004 (ip), vehicle: distilled water + Tween-80) was 102 % of control.
CC(O)(CSc1ccccc1)CSc1ccccc1 (tested in a mixture with another compound) was tested, and the T/C [1] was 104 % of control, the T/C [2] was 98 % of control and the T/C [3] was 100 % of control. For the same molecule, the T/C [4] was 101 % of control and the T/C [5] was 100 % of control.
For CN(C)CCNc1ccc(CO)c2sc3ccc(O)cc3c(=O)c12, the T/C [6] was 155 % of control, the T/C [7] was 119 % of control and the T/C [8] was 158 % of control.
In the case of CNNCc1ccc(C(=O)NC(C)C)cc1, the T/C (dose: 22.0 mg/kg/injection, schedule: Q04DX004 (ip), vehicle: saline) was 119 % of control, the T/C (dose: 88.0 mg/kg/injection, schedule: Q04DX004 (ip), vehicle: saline) was 152 % of control and the T/C (dose: 352.0 mg/kg/injection, schedule: Q04DX004 (ip), vehicle: saline) was 152 % of control.
Cc1cc(Br)c2nsnc2c1[N+](=O)[O-] was tested, and the T/C [6] was 96 % of control, the T/C [7] was 112 % of control and the T/C [9] was 104 % of control. The T/C [8] was 103 % of control and the T/C (dose: 800.0 mg/kg/injection, schedule: Q04DX004 (ip), vehicle: saline with Tween-80) was 87 % of control.
NC(Cn1ccc(=O)c(O)c1)C(=O)O (stereo not drawn) was tested, and the T/C (dose: 75.0 mg/kg/injection, schedule: Q04DX004 (ip), vehicle: saline) was 100 % of control, the T/C (dose: 150.0 mg/kg/injection, schedule: Q04DX004 (ip), vehicle: saline) was 109 % of control and the T/C (dose: 300.0 mg/kg/injection, schedule: Q04DX004 (ip), vehicle: saline) was 103 % of control. The T/C (dose: 600.0 mg/kg/injection, schedule: Q04DX004 (ip), vehicle: saline) was 118 % of control and the T/C (dose: 1200.0 mg/kg/injection, schedule: Q04DX004 (ip), vehicle: saline) was 113 % of control.
For NC(=O)c1oc([N+](=O)[O-])c(-c2ccccc2)c1-c1ccccc1, the T/C [2] was 98 % of control, the T/C [3] was 93 % of control and the T/C [4] was 94 % of control. The T/C [5] was 89 % of control.
With CS(=O)(=O)OCCCNCCCOS(C)(=O)=O the T/C (dose: 10.0 mg/kg/injection, schedule: Q04DX005 (ip), vehicle: saline) was 150 % of control, the T/C (dose: 20.0 mg/kg/injection, schedule: Q04DX005 (ip), vehicle: saline) was 185 % of control and the T/C (dose: 40.0 mg/kg/injection, schedule: Q04DX005 (ip), vehicle: saline) was 319 % of control. The T/C (dose: 80.0 mg/kg/injection, schedule: Q04DX005 (ip), vehicle: saline) was 319 % of control.
O=[n+]1c2c(n([O-])c3cc(Cl)c(Cl)cc31)CCCC2 was tested, and the T/C [1] was 99 % of control, the T/C [2] was 97 % of control and the T/C [3] was 100 % of control. The T/C [4] was 97 % of control and the T/C [5] was 95 % of control.
In the case of CCn1c(-c2ccc(OC(C)=O)cc2)c(C)c2cc(OC(C)=O)ccc21, the T/C (dose: 25.0 mg/kg/injection, schedule: Q04DX004 (ip), vehicle: Klucel (hydroxypropylcellulose) (HPC)) was 102 % of control, the T/C (dose: 50.0 mg/kg/injection, schedule: Q04DX004 (ip), vehicle: Klucel (hydroxypropylcellulose) (HPC)) was 107 % of control and the T/C (dose: 100.0 mg/kg/injection, schedule: Q04DX004 (ip), vehicle: Klucel (hydroxypropylcellulose) (HPC)) was 87 % of control. The T/C (dose: 200.0 mg/kg/injection, schedule: Q04DX004 (ip), vehicle: Klucel (hydroxypropylcellulose) (HPC)) was 90 % of control.
For COc1oc(C2C/C(=C/C(C)=C/C(C)=C/C(C)=C/c3ccc([N+](=O)[O-])cc3)CO2)c(C)c(=O)c1C (stereo not drawn), the T/C (dose: 1.0 mg/kg/injection, schedule: Q04DX004 (ip), vehicle: saline) was 100 % of control, the T/C (dose: 2.0 mg/kg/injection, schedule: Q04DX004 (ip), vehicle: saline) was 102 % of control and 104 % of control and the T/C (dose: 4.0 mg/kg/injection, schedule: Q04DX004 (ip), vehicle: saline) was 102 % of control and 103 % of control. For the same molecule, the T/C (dose: 8.0 mg/kg/injection, schedule: Q04DX004 (ip), vehicle: saline) was 106 % of control and 115 % of control.
With O=C1C(=O)N(c2cccc(Cl)c2)C(=O)N1Cc1ccccc1 the T/C (dose: 43.75 mg/kg/injection, schedule: Q04DX004 (ip), vehicle: Klucel (hydroxypropylcellulose) (HPC)) was 102 % of control, the T/C (dose: 87.5 mg/kg/injection, schedule: Q04DX004 (ip), vehicle: Klucel (hydroxypropylcellulose) (HPC)) was 97 % of control and the T/C (dose: 175.0 mg/kg/injection, schedule: Q04DX004 (ip), vehicle: Klucel (hydroxypropylcellulose) (HPC)) was 92 % of control. The T/C (dose: 350.0 mg/kg/injection, schedule: Q04DX004 (ip), vehicle: Klucel (hydroxypropylcellulose) (HPC)) was 94 % of control and the T/C (dose: 700.0 mg/kg/injection, schedule: Q04DX004 (ip), vehicle: Klucel (hydroxypropylcellulose) (HPC)) was 88 % of control.
COC(=O)Nc1cccc(-c2nc3ccc(NC(=O)OC)cc3c(=O)n2-c2ccccc2)c1 was tested, and the T/C (dose: 133.0 mg/kg/injection, schedule: Q04DX004 (ip), vehicle: Klucel (hydroxypropylcellulose) (HPC)) was 167 % of control.
With CCOC(=O)c1ccc2c(=O)[nH]nc(CO)c2c1 the T/C (dose: 25.0 mg/kg/injection, schedule: Q04DX004 (ip), vehicle: saline with Tween-80) was 99 % of control, the T/C [6] was 99 % of control and the T/C [7] was 99 % of control. The T/C [9] was 101 % of control and the T/C [8] was 94 % of control.
With CC1CC(Nc2ccc(NC3=CC(=O)OC(C)C3)cc2)=CC(=O)O1 (stereo not drawn) the T/C [2] was 99 % of control, the T/C [3] was 97 % of control and the T/C [4] was 94 % of control. The T/C [5] was 90 % of control.
